{"source": "patent US20050130935A1", "about": "“Combination of a beta-2-adrenoceptor agonists and an aminosugars and their use for the treatment immunomodulatory disorders” (priority 2002, published 2005)", "key": {"[1]": {"system": "arachidonic acid induced ear oedema", "assay": "arachidonic acid induced ear inflammation test in the mouse (Example 177)", "assay_type": "in vivo", "details": "i.p., 30 minutes before arachidonic acid, ears weighed one hour after application", "method": "(§1) The objective of this study is to assess the effect of three doses of two chemical complexes of the invention systemically administered in the arachidonic acid induced ear inflammation test in the mouse, a commonly employed method for screening and evaluation of antiinflammatory drugs. Dexamethasone was employed as reference compound.\n(§2) The study was performed in female BALB/ca mice from M & B A/S, DK-8680 Ry. At start of the acclimatisation period the mice were in the weight range of 20 g (+/−5 g).\nOn the day of arrival the animals were randomly allocated to groups of 8 mice.\n(§3) The test substances and reference compound were administered intraperitoneally in volumes of 20 ml per kg body weight 30 minutes before application of arachidonic acid to the ear.\nAll groups were treated with 20 μl arachidonic acid, 100 mg/ml in acetone, on the right ear. […]\n(§4) Mean weights and standard deviations were calculated. Relative ear oedema was assessed as the weight difference between right and left ear of each mouse expressed as percent of the left ear. Percent inhibition of the relative ear oedema compared with the vehicle treated groups was calculated for the test substance and reference compound treated groups.\nAll visible signs of ill health and any behavioural changes were recorded daily during the study. Any deviation from normal was recorded with respect to time of onset, duration and intensity. […]"}, "muscular pain": {"system": "muscular pain", "assay": "case report, with muscular pain (Example 179)", "assay_type": "in vivo, human", "method": "They were then treated with the complex of the invention disclosed in example 56 (1500 mg/day) instead of glucosamine sulfate. […] After two weeks they were symptom free for the first time in 6 years, which persisted for another 6 weeks of treatment, where after the treatment was terminated."}, "[2]": {"system": "osteoarthritis of the knees", "assay": "case report, person with osteoarthritis of the knees (Example 180)", "assay_type": "in vivo, human", "details": "for success of earlier analgesic treatment of osteoarthritis of the knees: treatment for periods during 8 years", "method": "They were then treated with the complex of the invention disclosed in example 56 (1500 mg/day). […] The improvement persisted for the entire treatment period of 10 weeks, where after the treatment was terminated."}, "[3]": {"system": "arachidonic acid induced ear oedema", "assay": "arachidonic acid induced ear inflammation test in the mouse, complex versus its components (Example 178)", "assay_type": "in vivo", "details": "i.p.; for inhibition of ear oedema, in words: doses of T17", "method": "as §1, with “a dose of a complex according to compared to the effect of the corresponding” for “three”, “the components” for “two chemical complexes”, “complex. All compounds were” for “invention”, “Methylprednisolone” for “Dexamethasone”\nas §2\nOn the day of arrival the animals were randomly allocated to groups of 10 mice.\nas §3\nAll groups were treated with 20 μl arachidonic acid, 100 mg/ml in acetone, on the right ear.\nOne hour after the arachidonic acid application the mice were sacrificed, the ears cut from the tip with a punch biopsy knife (8 mm diameter) and weighed.\nas §4\nAll visible signs of ill health and any behavioural changes were recorded daily during the study. Any deviation from normal was recorded with respect to time of onset, duration and intensity.\nDifferences in relative ear oedema between the vehicle treated group and the other groups were tested for significance employing a non-parametric statistical method of analysis, the Mann-Whitney U test. The required level of significance will be p<0.05. […] All statistical analysis was performed employing the statistical software package Analyse-it v. 1.62."}}, "data": [{"smiles": "C[C@@H]1C[C@H]2[C@@H]3CCC4=CC(=O)C=C[C@]4(C)[C@@]3(F)[C@@H](O)C[C@]2(C)[C@@]1(O)C(=O)CO", "note": "[Dexamethasone]", "values": [{"measurement": "% Inhibition of relative ear oedema", "setting": "[1]; 2 mg/kg", "value": 0, "unit": "%"}, {"measurement": "% Inhibition of relative ear oedema", "setting": "[1]; 6 mg/kg", "value": 0, "unit": "%"}]}, {"smiles": "CC(C)Cc1ccc(C(C)C(=O)O)cc1", "note": "(stereo not shown) [ibuprofen]", "values": [{"measurement": "success of earlier analgesic treatment of muscular pain", "setting": "muscular pain; treatment for periods during 6 years", "value": "limited success"}]}, {"smiles": "COc1ccc2c3c1O[C@H]1[C@@H](O)C=C[C@H]4[C@@H](C2)N(C)CC[C@@]341", "note": "[codeine]", "values": [{"measurement": "success of earlier analgesic treatment of osteoarthritis of the knees", "setting": "[2]", "value": "limited success"}]}, {"smiles": "N[C@H]1C(O)O[C@H](CO)[C@@H](O)[C@@H]1O", "note": "(stereo partly shown) [glucosamine]", "values": [{"measurement": "effect of earlier treatment on osteoarthritis of the knees", "setting": "[2]; recommended dose, different formulations", "value": "very limited effect"}]}, {"smiles": "CC(C)(C)NCC(O)c1ccc(O)c(CO)c1", "note": "(stereo not shown) [Salbutamol]", "values": [{"measurement": "% Inhibition of relative ear oedema", "setting": "[3]; 3.0 mg/kg", "value": 55, "unit": "%"}, {"measurement": "inhibition of ear oedema, in words", "setting": "[3]", "value": "inhibited ear oedema significantly"}]}, {"smiles": "CS(=O)(=O)c1ccc(C2=C(c3ccccc3)C(=O)OC2)cc1", "note": "[rofecoxib]", "values": [{"measurement": "success of earlier analgesic treatment of osteoarthritis of the knees", "setting": "[2]", "value": "limited success"}]}, {"smiles": "O=C(O)Cc1ccccc1Nc1c(Cl)cccc1Cl", "note": "[diclofenac]", "values": [{"measurement": "success of earlier analgesic treatment of osteoarthritis of the knees", "setting": "[2]", "value": "limited success"}]}, {"smiles": "C[C@H]1C[C@@H]2[C@H]([C@@H](O)C[C@@]3(C)[C@H]2CC[C@]3(O)C(=O)CO)[C@@]2(C)C=CC(=O)C=C12", "note": "[Methylprednisolone]", "values": [{"measurement": "% Inhibition of relative ear oedema", "setting": "[3]; 30 mg/kg", "value": 55, "unit": "%"}]}, {"smiles": "N[C@H]1C(O)O[C@H](CO)[C@@H](O)[C@@H]1O.O=S(=O)(O)O", "note": "(stereo partly shown) [Glucosamine sulfate]", "values": [{"measurement": "% Inhibition of relative ear oedema", "setting": "[3]; 997 mg/kg", "value": 9, "unit": "%"}, {"measurement": "inhibition of ear oedema, in words", "setting": "[3]", "value": "inhibited ear oedema mildly, and not statistically significantly"}, {"measurement": "improvement of muscular pain symptoms on earlier treatment", "setting": "muscular pain; 1500 mg a day, continuously the last year", "value": "small improvement"}]}]}
